A short description of series [1]: Pharmacokinetic screening, iv. As to conditions: CD-1 mice, 3 mg/kg iv. The series is classed as in vivo.
For series [2], the target named is Human PPARδ LBD (Homo sapiens (Human), UniProt Q03181). Kind of series: PPAR delta transactivation (PPARδ Activity Screen, GAL4-PPARδ LBD luciferase reporter in CV-1 cells). The format is cell-based. As for the experimental part: Cell Culture and Transfection:
CV-1 cells were grown in DMEM+10% charcoal stripped FCS. Cells were seeded into 384-well plates the day before transfection to give a confluency of 50-80% at transfection. A total of […] containing 0.64 micrograms pCMX-PPARDelta LBD, 0.1 micrograms pCMXβGal, 0.08 micrograms pGLMH2004 reporter and 0.02 micrograms pCMX empty vector was transfected per well using FuGene transfection reagent according to the manufacturer's instructions (Roche). Cells were allowed to express protein for 48 h followed by addition of compound.
Human PPARδ was used to PCR amplify the PPARδ LBD. […] Ensuing fusions were verified by sequencing.
Compounds: All compounds were dissolved in DMSO and diluted 1:1000 upon addition to the cells. Compounds were tested in quadruple in concentrations ranging from 0.001 to 100 μM. Cells were treated with compound for 24 h followed by luciferase assay. Each compound was tested in at least two separate experiments.
Statistical Methods: The activity of a compound is calculated as fold induction compared to an untreated sample. For each compound the efficacy (maximal activity) is given as a relative activity compared to GW501516, a PPARδ agonist. […] EC50 values were calculated via non-linear regression using GraphPad PRISM (GraphPad Software, San Diego, Calif.).

The subject of series [3] is C57BL6J mice, thermal injury to the TA. Put plainly: Muscle regeneration after freeze burn (thermal) injury to the TA, oral GW501516. The format is in vivo.
In series [4] the test system is FGF1a promoter. Put plainly: Luciferase reporter assay of FGF1a promoter co-transfected with PPARδ. The series is classed as cell-based. As to conditions: PPARδ with or without ligand. In general terms: Reporter assays use an easily measured gene product as a stand-in for the process of interest.

Human PPARδ LBD, sequence (Q03181 128-441 limits assumed): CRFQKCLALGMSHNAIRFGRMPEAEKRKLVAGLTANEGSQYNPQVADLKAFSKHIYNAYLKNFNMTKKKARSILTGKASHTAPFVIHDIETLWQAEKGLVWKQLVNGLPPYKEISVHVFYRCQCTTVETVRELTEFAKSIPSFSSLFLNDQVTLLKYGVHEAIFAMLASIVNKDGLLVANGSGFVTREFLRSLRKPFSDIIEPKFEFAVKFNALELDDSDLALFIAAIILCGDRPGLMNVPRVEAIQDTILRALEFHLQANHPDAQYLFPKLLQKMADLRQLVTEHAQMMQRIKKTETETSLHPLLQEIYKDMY

As to `Cc1cc2cc(C(=O)N(C)Cc3ccccc3OCCCCCC(=O)O)ccc2o1` [Comparator Cmpd. 3, reference compound], in series [1], the “Mice_PK_IV_AUC (0-inf)” value was “[AUC (0-inf) = 1788.0 ng * hr/ml]” and the Mice_PK_IV_Cl entry was “Mice_PK_IV_Cl = 27.95 ml/min/kg”.
Consider `CN(Cc1ccccc1OCCCC1CC1C(=O)O)C(=O)c1ccc(-c2ccco2)cc1` (centres unmarked) [Compound 8t, 2-(3-(2-((4-(furan-2-yl)-N-methylbenzamido)methyl)phenoxy)propyl) cyclopropane-1-carboxylic acid], for which the Mice_PK_IV_Cl in series [1] stood at 3.08 mL/min/kg.
Same read-out and setting: as for `CN(Cc1ccccc1OCCC[C@H]1C[C@H]1C(=O)O)C(=O)c1ccc(-c2ccco2)cc1` (single isomer, unassigned) [Compound 8w], the figure is 1.70 mL/min/kg.
As a reminder, the EC50 is the concentration giving half of the maximal effect. Read a low EC50 as an effect from little substance. In series [2] (CV-1 cells, 24 h), `C/C(=C\COc1ccc(C(F)(F)F)cc1CN(C)C(=O)c1ccc(-c2ccco2)cc1)CCC(=O)O` [Compound 8aa, (E)-6-(2-((4-(furan-2-yl)-N-methylbenzamido)methyl)-4-(trifluoromethyl)phenoxy)-4-methylhex-4-enoic acid] registered an EC50 of 0.683 µM.
Regarding `C/C(=C\COc1ccc(C)cc1CN(C)C(=O)c1ccc(-c2ccco2)cc1)CCC(=O)O` [Compound 8n, (E)-6-(2-((4-(furan-2-yl)-N-methylbenzamido)methyl)-4-methylphenoxy)-4-methylhex-4-enoic acid], the Mice_PK_IV_Cl in series [1] came out at 5.10 mL/min/kg.
On the same count and under the same terms, next, `CN(Cc1ccccc1OCCC[C@@H]1C[C@@H]1C(=O)O)C(=O)c1ccc(-c2ccco2)cc1` (single isomer, unassigned) [Compound 8x]: 1.90 mL/min/kg.
Regarding `C/C(=C\COc1ccccc1CN(C)C(=O)c1ccc(-c2ccc(C)o2)cc1)CCC(=O)O` [Compound 8e, (E)-4-methyl-6-(2-((N-methyl-4-(5-methylfuran-2-yl)benzamido)methyl)phenoxy)hex-4-enoic acid], in series [1], the “Mice_PK_IV_AUC (0-inf)” value was 2166.00 ng·h/mL and the Mice_PK_IV_Cl is 23.10 mL/min/kg.
For orientation: inhibition means the share of the control response that was lost under treatment. `C/C(=C\COc1ccc(C2CC2)cc1CN(C)C(=O)c1ccc(-c2ccco2)cc1)CCC(=O)O` [Compound 8bb, (E)-6-(4-cyclopropyl-2-((4-(furan-2-yl)-N-methylbenzamido)methyl)phenoxy)-4-methylhex-4-enoic acid] registered an inhibition at 10 µM in series [2] (CV-1, @ 10 uM) of 58%.
On to `CC(CCOc1ccccc1CN(C)C(=O)c1ccc(-c2ccco2)cc1)CCC(=O)O` (centres unmarked) [Compound 8h, 6-(2-((4-(furan-2-yl)-N-methylbenzamido)methyl)phenoxy)-4-methylhexanoic acid], for which, in series [1], the “Mice_PK_IV_AUC (0-inf)” value came out at 11843.00 ng·h/mL and the Mice_PK_IV_Cl is 4.20 mL/min/kg.
For `CN(Cc1ccccc1OCCC/C=C/C(=O)O)C(=O)c1ccc(-c2ccco2)cc1` [Compound 8cc, (E)-6-(2-((4-(furan-2-yl)-N-methylbenzamido)methyl)phenoxy)hex-2-enoic acid], in series [1], the “Mice_PK_IV_AUC (0-inf)” value came to 748.00 ng·h/mL and the Mice_PK_IV_Cl worked out at 66.87 mL/min/kg.
The corresponding values for `C/C(=C\COc1ccccc1CN(C)C(=O)c1ccc(-c2ccco2)c(F)c1)CCC(=O)O` [Compound 8c, (E)-6-(2-((3-fluoro-4-(furan-2-yl)-N-methylbenzamido)methyl)phenoxy)-4-methylhex-4-enoic acid] are 1459.00 ng·h/mL and 34.30 mL/min/kg.
The corresponding values for `C/C(=C\COc1ccc(F)cc1CN(C)C(=O)c1ccc(-c2ccco2)cc1)CCC(=O)O` [Compound 8g, (E)-6-(4-fluoro-2-((4-(furan-2-yl)-N-methylbenzamido)methyl)phenoxy)-4-methylhex-4-enoic acid] are 2195.00 ng·h/mL and 23.00 mL/min/kg.
`C/C(=C\COc1ccccc1CN(C)C(=O)c1ccc2oc(C)cc2c1)CCC(=O)O` [Compound 8f, (E)-6-(2-((N,2-dimethylbenzofuran-5-carboxamido)methyl)phenoxy)-4-methylhex-4-enoic acid] displayed a Mice_PK_IV_Cl in series [1] of 40.02 mL/min/kg.
On to `C/C(=C\CCCOc1ccccc1CN(C)C(=O)c1ccc(-c2ccco2)cc1)C(=O)O` [Compound 8k, (E)-6-(2-((4-(furan-2-yl)-N-methylbenzamido)methyl)phenoxy)-2-methylhex-2-enoic acid], for which, in series [1], the “Mice_PK_IV_AUC (0-inf)” value amounted to 12804.00 ng·h/mL and the Mice_PK_IV_Cl was 3.92 mL/min/kg.
The like results for `CC(CCCCOc1ccccc1CN(C)C(=O)c1ccc(-c2ccco2)cc1)C(=O)O` (centres unmarked) [Compound 8o, 6-(2-((4-(furan-2-yl)-N-methylbenzamido)methyl)phenoxy)-2-methylhexanoic acid] were, in that order, 11397.00 ng·h/mL and 2.78 mL/min/kg.
`C/C(=C\C(=O)O)CCCOc1ccccc1CN(C)C(=O)c1ccc(-c2ccco2)cc1` [Compound 8i, (E)-6-(2-((4-(furan-2-yl)-N-methylbenzamido)methyl)phenoxy)-3-methylhex-2-enoic acid]: in series [1], the “Mice_PK_IV_AUC (0-inf)” value stood at 4691.00 ng·h/mL and the Mice_PK_IV_Cl was determined as 10.65 mL/min/kg.
The like results for `CN(Cc1ccccc1OCc1cccc(CCC(=O)O)c1)C(=O)c1ccc(-c2ccco2)cc1` [Compound 8p, 3-(3-((2-((4-(furan-2-yl)-N-methylbenzamido)methyl)phenoxy)methyl)phenyl)propanoic acid] were, in that order, 288.90 ng·h/mL and 173.05 mL/min/kg.
The like results for `CN(Cc1ccccc1/C=C/CCCCC(=O)O)C(=O)c1ccc(-c2ccco2)cc1` [Compound 8l, (E)-7-(2-((4-(furan-2-yl)-N-methylbenzamido)methyl)phenyl)hept-6-enoic acid] were, in that order, 5161.00 ng·h/mL and 9.68 mL/min/kg.
The like results for `CN(Cc1ccccc1OCCC[C@H]1CC1C(=O)O)C(=O)c1ccc(-c2ccco2)cc1` (single isomer, unassigned) [Compound 8u, (1R*,2S*)-2-(3-(2-((4-(furan-2-yl)-N-methylbenzamido)methyl)phenoxy)propyl) cyclopropane-1-carboxylic acid] were, in that order, 30142.00 ng·h/mL and 1.70 mL/min/kg.
As to `C/C(=C\COc1ccccc1CN(C)C(=O)c1ccc(-c2ccco2)c(Cl)c1)CCC(=O)O` [Compound 8d, (E)-6-(2-((3-chloro-4-(furan-2-yl)-N-methylbenzamido)methyl)phenoxy)-4-methylhex-4-enoic acid], in series [1], the “Mice_PK_IV_AUC (0-inf)” value came out at 1443.00 ng·h/mL and the Mice_PK_IV_Cl came to 34.65 mL/min/kg.
The corresponding values for `CN(Cc1ccccc1OCc1cccc(CC(=O)O)c1)C(=O)c1ccc(-c2ccco2)cc1` [Compound 8q, 2-(3-((2-((4-(furan-2-yl)-N-methylbenzamido)methyl)phenoxy)methyl)phenyl)acetic acid] are 622.50 ng·h/mL and 80.32 mL/min/kg.
With `Cc1cc(SCc2sc(-c3ccc(C(F)(F)F)cc3)nc2C)ccc1OCC(=O)O` [GW501516], in series [3] (5 mg/kg orally, 4 days prior to and 5 days after injury, 5 days after the injury), the “Evans Blue dye uptake, proportion of muscle CSA stained” value was found to be 4.9%. In addition, the “expression of inflammatory marker genes by QPCR” value in series [3] (3 days after the injury) is given as “significantly reduced”. Besides, the “reduction in the proportion of stained area” value in series [3] (5 days after the injury, versus vehicle) is recorded as 34.7%. Also, the “PPARδ target genes (PDK4, CPT1b, and catalase) in TA by QPCR” value in series [3] (9 day treatment) is listed as “Up-regulation”. The “myoblast proliferation (BrdU positive nuclei)” value in series [3] (BrdU injection at 48 hours after the injury) is on record as “promoted myoblast proliferation”. In addition, the “number of quiescent satellite cells” value in series [3] (after 9 days or 4 weeks of ligand treatment) is on record as “an increase in the number of quiescent satellite cells was not observed”. Also, the “induction of FGF1a (luciferase reporter)” value in series [4] is reported as “induction of FGF1a”.
Regarding `CN(Cc1ccccc1OCCCCC(C)(C)C(=O)O)C(=O)c1ccc(-c2ccco2)cc1` [Compound 8s, 6-(2-((4-(furan-2-yl)-N-methylbenzamido)methyl)phenoxy)-2,2-dimethylhexanoic acid], in series [1], the “Mice_PK_IV_AUC (0-inf)” value was determined as 48454.90 ng·h/mL and the Mice_PK_IV_Cl is 1.03 mL/min/kg.

The record behind these values is patent US10188627B2, “PPAR agonists, compounds, pharmaceutical compositions, and methods of use thereof” (Mitobridge, Inc., priority 2014, dated 2019).
